Experimental data reported in EP1891940B1, “Intrasynovial formulations of stanozolol” (Acme Drugs S.r.l., priority 2006, dated 2008).

Assays:
[1] = Persistence of stanozolol in the joint / synovial fluid after intrasynovial injection; format: in vivo, horses and humans
From the text: A single intrasynovial injection of said formulations allows the stanozolol to be brought up to and maintained at pharmacologically active concentrations in the joint for 6-7 days, a period which is long enough to produce evident clinical benefits and fully compatible with long-term treatments.
Two examples of formulation of a typical preparation containing stanozolol administrable by the intrasynovial route to horses and humans, which remains in the synovial fluid for 5-7 days, one set out below: • a) Active ingredient: micronised stanozolol (having a prevalent population of particles with a diameter of less than 20 µm) 5 mg; Water for injectables q.s. to 1 ml. • b) Active ingredient: Micronised Stanozolol: (having a prevalent population of particles with diameter of less than 20 µm) 5 mg/ml

Solubility in water = format: physicochemical; details: crystalline substance
From the text: The formulations according to the invention of stanozolol in an aqueous carrier are therefore aqueous suspensions, and it is necessary to prevent the suspended crystals of the drug from causing mechanical lesions such as abrasions and erosions despite the pressures and friction generated by the movement of the joint on the surfaces of the cartilage and synovial membrane.

With `C[C@]12Cc3c[nH]nc3C[C@@H]1CC[C@@H]1[C@@H]2CC[C@@]2(C)[C@H]1CC[C@]2(C)O` [stanozolol] the “maintained at pharmacologically active concentrations in the joint” value ([1]; single intrasynovial injection of the micronised aqueous suspension formulations) was 6-7 days, the “remains in the synovial fluid” value ([1]; typical preparation with micronised stanozolol 5 mg/ml, intrasynovial route, horses and humans) was 5 to 7 days and the solubility in water (Solubility in water) was “insoluble in water”.
